Reference: article PMC5572722, “Dimerization in tailoring uptake efficacy of the HSV-1 derived membranotropic peptide gH625” (Scientific Reports, 2017)
Positions of bridges follow the written chain, without caps; N, C: chain ends. Residues, ends and D or L forms follow the SMILES beside them. Chains are numbered I, II in the order given. No end group written: not given here.

Legend:
[1] = Lipid mixing (NBD/Rho FRET membrane fusion); settings: lipid 0.1 mM, 25 °C
Description: In order to gain insight into the ability to interact and perturb the lipid membrane, nitrobenzoxadiazole (NBD) and Rhodamine (Rho) were used as the donor and acceptor of fluorescence energy transfer. Dilution of labelled vesicles caused by peptide induced membrane fusion, determines a larger average distance between fluorescent and quenching lipids and thus a reduction in the fluorescence energy transfer efficiency. […] The three peptides interact more strongly with LUVs containing cholesterol, confirming the preference for more rigid membranes.
Figure 1 Peptide-promoted membrane fusion as determined by lipid mixing of gH625 (A), gH625-H7 (B) and gH625-G7 (C) in LUVs composed of: DOPG, DOPG/Chol 60/40 (mol/mol) and DOPC/Chol 60/40 (mol/mol). […] Lipid concentration is 0.1 mM. […] Panel D reports the peptide-promoted membrane fusion of the three peptides in DOPG/Chol LUVs 60/40 (mol/mol).
A cut off filter at 515 nm was used.

[2] = GUV image analysis, shape descriptors (light sheet fluorescence microscopy); settings: [(treated GUVs − control GUVs)/control GUVs]*100
Description: GUVs appear dark against the background as a consequence of the difference in refractive index of GUVs contents (sucrose solution) and the surrounding medium (glucose solution). A white halo appears around the vesicle. Formation of pores and of protuberances may be thus evidenced. GUVs appear under differential interference contrast (DIC) round shaped with an average smaller area compared to GUVs treated with gH625 (Table 5, Figure 8). […] The addition of gH625-H7 to GUVs produced a similar effect of gH625 with the only difference that it induces an enhancement of the GUVs fusion tendency (Figure 8). gH625 and gH625-H7 enhance the mean area and perimeter of GUVs (Figure 9A,C). […] Main shape descriptor analysis confirms that the addition of gH625 or gH625-H7 induces an increase in area and perimeter also indicating a decrease in circularity and roundness parameters (Table 5).
LUVs and SUVs for fluorescence,circular dichroism and surface plasmon resonance, consisting of DOPG, DOPG/Chol (60/40 mol/mol), DOPC/Chol (60/40 mol/mol), and when necessary containing Rho-PE and NBD-PE, or ANTS and DPX, were prepared in 5 mM HEPES, 100 mM NaCl, pH 7.4[66]. Aliquots containing the necessary amount of lipids were dried from a chloroform solution with a nitrogen gas stream and lyophilized overnight to produce dry lipid films which were then resuspended in buffer and vortexed for 1 h; the lipid suspension was freeze-thawed 6 times to obtain multilamellar vesicles (MLV). […] Lipid concentrations of liposome suspensions were determined by phosphate analysis. […]
GUVs were used upon one day from preparation. Ten microliters of fluorescent GUVs were analyzed (before and after the addition of gH625 or gH625-H7) under a custom made light sheet fluorescent microscope equipped with five laser lines (λ = 375 nm Coherent Cube, λ = 405 nm Coherent Cube, λ = 473 nm Laserworld Blue-200, λ = 532 nm Coherent Compass 215 M-10 DPSS laser and λ = 632.8 nm Thorlabs HRR005S Helium-Neon laser), a motorized microscope MS-2000 XY stage with LX-4000 controller (Applied Scientific Instrumentation), a Focus Drive motorized Z stage (Tofra Inc.) and Nano-F200S nanopositioner controlled by Nanodrive® controller (Mad City Labs); all devices were managed by MicroManager software. […] The emerging fluorescence was detected by the Orca flash 2.8 sCMOS camera (Hamamatsu) driven by Dalsa Xcelera (Teledyne DALSA) PCIe card mounted on AMD FX-8 core 3.5 GHz, 32 Gb RAM pc running Windows 8.1 (Microsoft). […] GUV parameters were calculated by the Analyze particles ImageJ plugin; a minimum size of 5 μm^2 and circularity of at least […] Circularity=4π×[Area]/[Perimeter]^2 with a value of 1.0 indicating a perfect circle) was considered. […]

Compound | lipid mixing activity in DOPG/Chol LUVs ([1]; compared to the other peptides) | Var % circularity versus GUVs alone [2] [%] | Var % roundness versus GUVs alone [2] [%] | lipid mixing activity in DOPG LUVs ([1]; average of three experiments)
I: HGLASTLTRWAHYNALIRAFGCGKKKK-NH2 / II: HGLASTLTRWAHYNALIRAFGCGKKKK-NH2 (disulfide I:22-II:22) [gH625-H7] | significantly higher activity | −33.33 | −18.18 | 
CC[C@H](C)[C@H](NC(=O)[C@H](CC(C)C)NC(=O)[C@H](C)NC(=O)[C@H](CC(N)=O)NC(=O)[C@H](Cc1ccc(O)cc1)NC(=O)[C@H](Cc1c[nH]cn1)NC(=O)[C@H](C)NC(=O)[C@H](Cc1c[nH]c2ccccc12)NC(=O)[C@H](CCCNC(=N)N)NC(=O)[C@@H](NC(=O)[C@H](CC(C)C)NC(=O)[C@@H](NC(=O)[C@H](CO)NC(=O)[C@H](C)NC(=O)[C@H](CC(C)C)NC(=O)CNC(=O)[C@@H](N)Cc1c[nH]cn1)[C@@H](C)O)[C@@H](C)O)C(=O)N[C@@H](CCCNC(=N)N)C(=O)N[C@@H](C)C(=O)N[C@@H](Cc1ccccc1)C(N)=O [gH625] (H-HGLASTLTRWAHYNALIRAF-NH2) |  | −8.33 | −10.60 | less active than the other two
